The subject of the data set is C57BL/6J and athymic nude mice. Description: Acute and chronic toxicity studies, clinical observation and histology. It is filed as in vivo. The method, then:
The acute and chronic toxicity studies were carried out in both male C57BL/6J and athymic nude mice (Table 3 and Table 4) using daily administration of IST5 vs. vehicle at doses of 0, 10, 30 and 100 mg/kg (n = 5/dose) as well as in female (data not shown) mice. There were no signs of anemia (hemoglobin-HGB; hematocrit-HCT), thrombocytopenia or leukopenia. In either acute or chronic toxicity studies, there was no mortality in the mice associated with IST5 treatment. The gross histology of the liver, spleen (Figure 6), kidney and brain were normal (28 d). […] IST5 had no effects on body weight, organ weight, appearance, respiration, or eye function. Of note, a number of the Jak2 kinase inhibitors in use or in clinical development have shown off-target inhibitory effects on TrkB kinase (a receptor for brain-derived neurotrophic factor), thereby causing neurological side-effects.
Figure 6 IST5 […] significant chronic toxicity in vivo in mice. The chronic toxicity studies were carried out in both male and female C57BL/6J and athymic nude mice by daily administration of IST5 vs. vehicle at doses of 0, 10, 30 and 100 mg/kg (n = 5/dose). At the end of the study, heart, kidney, liver, lung and spleen tissues were fixed and stained with hematoxylin and eosin. The gross histology of heart, liver, spleen, kidney, spleen and brain were all normal (28 d).
Forty athymic nude mice (8 weeks) (Crl:NU/NCr-Foxn1n) of either sex (20 males and 20 females) were randomized into four groups (n = 5/group) for either sex. The randomization of the mice was carried out based on their baseline body weight measured on day 0. IST5 or vehicle (0.3% hydroxypropyl cellulose, (Sigma-Aldrich, MO, St. Louis, MO, USA) were administered to the mice by i.p. injection for 28 days. The mice were observed daily for behavior, and body weights were measured on every 3rd day throughout the 28-day experimental protocol. The monitoring was started immediately after the compound administration and continued for 2 h for any acute signs of toxicity. In addition, the mice were monitored daily for any signs of toxicity using several clinical parameters. The clinical signs that were taken into consideration were as follows: 1) weight loss: rapid weight loss ([…]) or, weight loss of extended period time ([…]); 2) rapid growth of mass or masses; 3) paralysis or paresis (partial paralysis); 4) frank bleeding from any orifice; 5) lesions interfering with eating or drinking; 6) diarrhea (non-formed/soft stool or diarrhea liquid stool); 6) loss of body temperature; 7) appearance: rough coat, porphyrin staining (red or brown staining around eyes, nose, or along front paws, distended abdomen, alopecia; 8) eyes: ocular discharge, pale appearance, distinct icterus (jaundice or yellowing of the eyes); 9) respiration: coughing or wheezing, rales or crackling in the lungs, respiration increased or labored; 10) behavioral: hunched posture, huddling in a corner, lethargy, avoiding cagemate(s), head tilt, tremors (head, body, tail), spasticity (stiff muscles), ataxia (loss of voluntary muscle movement), seizures or convulsions, circling, persistent self-induced trauma, chattering or vocalizations, loss of startle response, loss of righting reflex. The clinical chemistry parameters measured were the same as those used for the acute toxicity study.
The sub-chronic toxicity study (10 days) was carried out in C57BL/6J mice (8 weeks) (stock 000664) (n = 10/dose group 5 of each sex). […]

`O=P(O)(O)OCC1OC(n2cnc3c(NCc4ccccc4)ncnc32)C(O)C1O` (centres unmarked) [IST5]: the “mortality associated with treatment” value (acute or chronic toxicity studies, 10, 30 and 100 mg/kg) is “no mortality”. The “signs of anemia, thrombocytopenia or leukopenia” value (daily 10, 30 and 100 mg/kg) was “no signs”. In addition, where the note is “mouse, in vivo”, the “adverse effects on blood clinical chemistry (blood urea, liver enzymes, glucose, albumin)” value is recorded as “no adverse effects”; the “effects on body weight, organ weight, appearance, respiration, or eye function” value is “no effects”; the “gross histology of liver, spleen, kidney and brain” value is recorded as “normal”.

The values above are taken from publication PMC7724566, “Prospects for Clinical Development of Stat5 Inhibitor IST5-002: High Transcriptomic Specificity in Prostate Cancer and Low Toxicity In Vivo” (Cancers, 2020).
